Reference: EP4722228A1, “NEW COMPOUND TARGETING MUSK AND USE THEREOF” (The University of Tokyo, priority 2023, dated 2024)
Bridge positions count the residues as written; N and C are the ends. Square brackets hold non-standard residues; d marks the D form. Peptide text beside a SMILES is read from it. I, II: the chains in the order shown. * marks the point of attachment. Palmitoyl = CCCCCCCCCCCCCCCC(=O)*; PEG3 = NCCOCCOCCOCCC(=O)O; Dap = NC[C@H](N)C(=O)O

Tests used:
rat PTMG model = assay: Rat PTMG myasthenia gravis model induced by anti-acetylcholine receptor monoclonal antibody (mAb35); assay type: in vivo; conditions: 0-72 hr after antibody
Experimental: (§1) 5-week-old female rats (n=20, LEW/CrlCrlj, 4 weeks old when carried in, Jackson Laboratory Japan) were divided into four groups (Group A, Group B, Group C, and Group D) using body weight measurement results as indexes. Vehicle was administered to Group A, and the test compound MuSK7-pal dissolved in vehicle was administered intravenously to each of Group B (3 mg/kg), Group C (2 mg/kg), and Group D (1 mg/kg) (Day 0). Two hours after intravenous administration, an anti-nicotinic acetylcholine receptor monoclonal antibody (mAb35, National Hospital Organization Nagasaki Kawatana Medical Center) dissolved in PBS (pH 7.4) as a drug for inducing the pathology of myasthenia gravis was administered intraperitoneally to all animals at 200 µg/rat (Day 0). The vehicle, which was a solvent of the compound, was phosphate-buffered saline (PBS) at pH 7.4 containing 20% hydroxypropyl-β-cyclodextrin and 0.02% polysorbate 80 (the same applies to Example 3(2)).
Next, the body weight of the animals was measured before antibody administration (pre) and at 0, 9, 24, 33, 48, 57, and 72 hours (hr) after antibody administration. The movement, muscle strength, and grip strength of the animals were evaluated by the following tests. […]
as §1, with “(n=24,” for “(n=20,”, “(0.5” for “(3”, “(0.25” for “(2”, “(0.1” for “(1”, “0).” for “0). The vehicle, which was a solvent of the compound, was phosphate-buffered saline (PBS) at pH 7.4 containing 20% hydroxypropyl-β-cyclodextrin and 0.02% polysorbate 80 (the same applies to Example 3(2)).”
The movement of the animals was evaluated at each time point of 9, 24, 33, 48, 57, and 72 hours (hr) after antibody administration according to six-level evaluation criteria (Score). The evaluation criteria were the same as those in (1) B above. […]

[1] = tested on: rat PTMG model using anti-acetylcholine receptor monoclonal antibody (mAb35); assay: Grip Strength Test in rat PTMG model; assay type: in vivo; conditions: approx. 30 hours after antibody
Experimental: as §1
Approximately 30 hours after antibody administration, the muscle strength of the rats was measured using a mouse grip strength meter (GRIP STRENGTH METER FOR MICE, MODEL MK-380M, Muromachi Kikai Co., Ltd.). Specifically, the rats were left for 15 minutes or longer, and after confirming that they were in a resting state, the forelimbs of the rats were made to grasp the mouse grip strength meter. Next, the bodies of the rats were pulled, and the scale of the grip strength meter at the point when the rats released the wire mesh was read (first measurement). The above procedure was repeated once more (second measurement). When the difference between the first and second measurement values was 20% or less, the average value thereof was used as the measurement value. When the difference was 20% or more, the above procedure was further performed once more (third measurement), and the average value of two measurements with close values among the three measurements was used as the measurement value.
as §1, with “(n=24,” for “(n=20,”, “(0.5” for “(3”, “(0.25” for “(2”, “(0.1” for “(1”, “0).” for “0). The vehicle, which was a solvent of the compound, was phosphate-buffered saline (PBS) at pH 7.4 containing 20% hydroxypropyl-β-cyclodextrin and 0.02% polysorbate 80 (the same applies to Example 3(2)).”
The Grip Strength Test was performed approximately 30 hours after antibody administration. The implementation procedure was the same as that in (1) B above.
5-week-old female rats (LEW/CrlCrlj, 4 weeks old when carried in, Jackson Laboratory Japan) were divided into three groups (Group A, Group B, and Group C) using body weight measurement results as indexes. The test compound (tetramer of Ub012 (EAAAK)3) dissolved in vehicle was administered intravenously to Group A (5 mg/kg) (n=5), the test compound (tetramer of Ub012(ΔGG) (EAAAK)3) dissolved in vehicle was administered intravenously to Group B (5 mg/kg) (n=5), and vehicle was administered intravenously to Group C (n=5), respectively (Day 0). Two hours after intravenous administration, an anti-nicotinic acetylcholine receptor monoclonal antibody (mAb35, National Hospital Organization Nagasaki Kawatana Medical Center) dissolved in PBS (pH 7.4) as a drug for inducing the pathology of myasthenia gravis was administered intraperitoneally to all animals at 200 µg/rat (Day 0).
The Grip Strength Test was performed approximately 30 hours after antibody administration. The implementation procedure was the same as that in Example 3(1) B.

CCCCCCCCCCCCCCCC(=O)NCCCC[C@H](NC(=O)[C@H](CNC(=O)CCOCCOCCOCCNC(=O)CNC(=O)[C@@H]1CSCC(=O)N[C@H](Cc2ccc(O)cc2)C(=O)N2CCC[C@H]2C(=O)N[C@@H](CO)C(=O)N[C@@H](Cc2ccc(O)cc2)C(=O)N[C@@H](Cc2c[nH]cn2)C(=O)N[C@@H]([C@@H](C)O)C(=O)N[C@@H](CC(N)=O)C(=O)N[C@@H](C(C)C)C(=O)N[C@@H](C(C)C)C(=O)N[C@@H](C)C(=O)N[C@@H](CO)C(=O)N[C@@H](CC(C)C)C(=O)N[C@@H](CCCCN)C(=O)N[C@@H](CCCNC(=N)N)C(=O)N1)NC(=O)CCOCCOCCOCCNC(=O)CNC(=O)[C@@H]1CSCC(=O)N[C@H](Cc2ccc(O)cc2)C(=O)N2CCC[C@H]2C(=O)N[C@@H](CO)C(=O)N[C@@H](Cc2ccc(O)cc2)C(=O)N[C@@H](Cc2c[nH]cn2)C(=O)N[C@@H]([C@@H](C)O)C(=O)N[C@@H](CC(N)=O)C(=O)N[C@@H](C(C)C)C(=O)N[C@@H](C(C)C)C(=O)N[C@@H](C)C(=O)N[C@@H](CO)C(=O)N[C@@H](CC(C)C)C(=O)N[C@@H](CCCCN)C(=O)N[C@@H](CCCNC(=N)N)C(=O)N1)C(N)=O [MuSK7-pal] (I: {CH2CO}-[dY]PSYHTNVVASLKRCG[PEG3][Dap]K(Palmitoyl)-NH2 / II: {CH2CO}-[dY]PSYHTNVVASLKRCG[PEG3]; amide I:18-II:C; thioether I:N-I:15, II:N-II:15)
body weight change (rat PTMG model; 0.1 mg/kg intravenous (Group D, low-dose study)): the degree of decrease in body weight was milder than that in Group A
body weight change (rat PTMG model; 0.25 mg/kg intravenous (Group C, low-dose study)): the degree of decrease in body weight was milder than that in Group A
body weight change (rat PTMG model; 0.5 mg/kg intravenous (Group B, low-dose study)): the degree of decrease in body weight was milder than that in Group A
body weight change (rat PTMG model; 2 mg/kg intravenous (Group C, high-dose study)): the degree of decrease in body weight was milder than that in Group A
body weight change (rat PTMG model; 3 mg/kg intravenous (Group B, high-dose study)): the degree of decrease in body weight was milder than that in Group A
grip strength ([1]; 0.1 mg/kg intravenously (Group D, Example 3(2))): 452 g
grip strength ([1]; 0.25 mg/kg intravenously (Group C, Example 3(2))): 476 g
grip strength ([1]; 0.5 mg/kg intravenously (Group B, Example 3(2))): 461 g
grip strength ([1]; 1 mg/kg intravenously (Group D, Example 3(1))): 577 g
grip strength ([1]; 2 mg/kg intravenously (Group C, Example 3(1))): 474 g
grip strength ([1]; 3 mg/kg intravenously (Group B, Example 3(1))): 467 g
